What was measured:
Cytokine 12 Panel [1] = assay: Cytokine 12 panel, oral daily dosing with 3 mg Fibrinopeptide A (Table 5); type: in vivo, human; set-up: IL-10 / TNF-α / IL-2 / IL-12: unit not given here; details: for IFN-γ / IL-4 / IL-5 / IL-6 / IL-8 / IL-13: nl: 0-5; for IL-12: nl: 0-6; for IL-2: nl: 0-12; for IL-10: nl: 0-18; for TNF-α: nl: 0-22; for IL-1β: nl: 0-36; for IL-2R: nl: 0-1033
Description: [table] […] One of these patients was the same patient previously utilized, while the other was relatively neve to any previous Fibrinopeptide A treatment. The patient had taken two doses orally approximately seven weeks prior to this treatment, no lab work had been obtained with this prior dosing. […] Note the response in the IL-10 and IL-1b in this patient similar to the other patients. However, this patient return back toward baseline values much more rapidly than the other patients, accentuating the variability expected in this type of response from one patient to another. This also validates the efficacy of oral administration to achieve an anti-inflammatory/immunomodulatory benefit.

Cytokine 12 Panel [2] = assay: Cytokine 12 panels following oral administration of FPA (Table 6); type: in vivo, human; set-up: IL-12 / IL-10 / TNF-α / IL-2: unit not given here; details: for IFN-γ / IL-4 / IL-5 / IL-6 / IL-8 / IL-13: nl: 0-5; for IL-12: nl: 0-6; for IL-2: nl: 0-12; for IL-10: nl: 0-18; for TNF-α: nl: 0-22; for IL-1β: nl: 0-36; for IL-2R: nl: 0-1033
Description: One of these patients was the same patient previously utilized, while the other was relatively neve to any previous Fibrinopeptide A treatment. The patient had taken two doses orally approximately seven weeks prior to this treatment, no lab work had been obtained with this prior dosing. […] This again elucidates the lack of effect of Fibrinopeptide A when given IV and the importance of utilizing a lymphatic route when treating with Fibrinopeptide A, and probably the others as well. [table] The data in table 6 further illustrates the up regulation of all aspects of the immune system in response to this persistent exposure to synthetic activated fibrinopeptide A through a lymphatic administration.

[3] = 2 weeks back on FPA (different carrier)

In the case of “ADSGEGDFLAEGGGV (listed as Homo sapiens) [Fibrinopeptide A]”, the IFN-γ (Cytokine 12 Panel [1]; Off 1 Week) is reported as 5, the IL-4 (Cytokine 12 Panel [1]; Off 1 Week) is reported as less than 5 and the IL-5 (Cytokine 12 Panel [1]; Off 1 Week) is reported as 5. It also gave an IL-6 (Cytokine 12 Panel [1]; Off 1 Week) of 5, an IL-8 (Cytokine 12 Panel [1]; Off 1 Week) of 8 and an IL-13 (Cytokine 12 Panel [1]; Off 1 Week) of 8. The IL-12 (Cytokine 12 Panel [1]; Off 1 Week) was 6, the IL-2 (Cytokine 12 Panel [1]; Off 1 Week) was 6 and the IL-10 (Cytokine 12 Panel [1]; Off 1 Week) was 28. It also gave a TNF-α (Cytokine 12 Panel [1]; Off 1 Week) of less than 5, an IL-1β (Cytokine 12 Panel [1]; Off 1 Week) of less than 5 and an IL-2R (Cytokine 12 Panel [1]; Off 1 Week) of 147. The “elevation of Interleukin-13” value (Cytokine 12 Panel [1]; giving just Fibrinopeptide A) was “does not result in an elevation”, the IFN-γ (Cytokine 12 Panel [1]; oral daily 3 mg, 1 Week) was less than 5 and the IL-4 (Cytokine 12 Panel [1]; oral daily 3 mg, 1 Week) was less than 5. For the same sequence, the IL-5 (Cytokine 12 Panel [1]; oral daily 3 mg, 1 Week) was less than 5, the IL-6 (Cytokine 12 Panel [1]; oral daily 3 mg, 1 Week) was less than 5 and the IL-8 (Cytokine 12 Panel [1]; oral daily 3 mg, 1 Week) was less than 5. It also gave an IL-13 (Cytokine 12 Panel [1]; oral daily 3 mg, 1 Week) of less than 5, an IL-12 (Cytokine 12 Panel [1]; oral daily 3 mg, 1 Week) of less than 5 and an IL-2 (Cytokine 12 Panel [1]; oral daily 3 mg, 1 Week) of less than 5. It also gave an IL-10 (Cytokine 12 Panel [1]; oral daily 3 mg, 1 Week) of 137, a TNF-α (Cytokine 12 Panel [1]; oral daily 3 mg, 1 Week) of less than 5 and an IL-1β (Cytokine 12 Panel [1]; oral daily 3 mg, 1 Week) of 30. The IL-2R (Cytokine 12 Panel [1]; oral daily 3 mg, 1 Week) was 423, the IFN-γ (Cytokine 12 Panel [2]; 2 Weeks off FPA) was less than 5 and the IL-4 (Cytokine 12 Panel [2]; 2 Weeks off FPA) was less than 5. It also gave an IL-5 (Cytokine 12 Panel [2]; 2 Weeks off FPA) of 6, an IL-6 (Cytokine 12 Panel [2]; 2 Weeks off FPA) of 66 and an IL-8 (Cytokine 12 Panel [2]; 2 Weeks off FPA) of 8. It also gave an IL-13 (Cytokine 12 Panel [2]; 2 Weeks off FPA) of 8, an IL-12 (Cytokine 12 Panel [2]; 2 Weeks off FPA) of 6 and an IL-2 (Cytokine 12 Panel [2]; 2 Weeks off FPA) of 7. For the same sequence, the IL-10 (Cytokine 12 Panel [2]; 2 Weeks off FPA) was 230, the TNF-α (Cytokine 12 Panel [2]; 2 Weeks off FPA) was less than 5 and the IL-1β (Cytokine 12 Panel [2]; 2 Weeks off FPA) was 37. For the same sequence, the IL-2R (Cytokine 12 Panel [2]; 2 Weeks off FPA) was 255, the IFN-γ (Cytokine 12 Panel [2]; [3]) was 5 and the IL-4 (Cytokine 12 Panel [2]; [3]) was less than 5. The IL-5 (Cytokine 12 Panel [2]; [3]) was 6, the IL-6 (Cytokine 12 Panel [2]; [3]) was 63 and the IL-8 (Cytokine 12 Panel [2]; [3]) was 8. For the same sequence, the IL-13 (Cytokine 12 Panel [2]; [3]) was 9, the IL-12 (Cytokine 12 Panel [2]; [3]) was 6 and the IL-2 (Cytokine 12 Panel [2]; [3]) was 7. For the same sequence, the IL-10 (Cytokine 12 Panel [2]; [3]) was 204, the TNF-α (Cytokine 12 Panel [2]; [3]) was less than 5 and the IL-1β (Cytokine 12 Panel [2]; [3]) was 48. For the same sequence, the IL-2R (Cytokine 12 Panel [2]; [3]) was 268, the IFN-γ (Cytokine 12 Panel [2]; oral, 1 Week) was less than 5 and the IL-4 (Cytokine 12 Panel [2]; oral, 1 Week) was less than 5. For the same sequence, the IL-5 (Cytokine 12 Panel [2]; oral, 1 Week) was less than 5, the IL-6 (Cytokine 12 Panel [2]; oral, 1 Week) was less than 5 and the IL-8 (Cytokine 12 Panel [2]; oral, 1 Week) was less than 5. The IL-13 (Cytokine 12 Panel [2]; oral, 1 Week) was less than 5, the IL-12 (Cytokine 12 Panel [2]; oral, 1 Week) was less than 5 and the IL-2 (Cytokine 12 Panel [2]; oral, 1 Week) was less than 5. It also gave an IL-10 (Cytokine 12 Panel [2]; oral, 1 Week) of 141, a TNF-α (Cytokine 12 Panel [2]; oral, 1 Week) of less than 5 and an IL-1β (Cytokine 12 Panel [2]; oral, 1 Week) of 30. For the same sequence, the IL-2R (Cytokine 12 Panel [2]; oral, 1 Week) was 504, the IFN-γ (Cytokine 12 Panel [2]; oral, 2 weeks) was 5 and the IL-4 (Cytokine 12 Panel [2]; oral, 2 weeks) was less than 5. It also gave an IL-5 (Cytokine 12 Panel [2]; oral, 2 weeks) of 5, an IL-6 (Cytokine 12 Panel [2]; oral, 2 weeks) of 77 and an IL-8 (Cytokine 12 Panel [2]; oral, 2 weeks) of 8. For the same sequence, the IL-13 (Cytokine 12 Panel [2]; oral, 2 weeks) was 6, the IL-12 (Cytokine 12 Panel [2]; oral, 2 weeks) was 6 and the IL-2 (Cytokine 12 Panel [2]; oral, 2 weeks) was 7. For the same sequence, the IL-10 (Cytokine 12 Panel [2]; oral, 2 weeks) was 183, the TNF-α (Cytokine 12 Panel [2]; oral, 2 weeks) was less than 5 and the IL-1β (Cytokine 12 Panel [2]; oral, 2 weeks) was 83. The IL-2R (Cytokine 12 Panel [2]; oral, 2 weeks) was 254.
